The values that follow come from patent US20220288069A1, “INHIBITORS OF TYROSINE KINASE” (BridGene Biosciences, Inc., priority 2019, published 2022).

The target in one assay is T1, FLT3 (Homo sapiens, UniProt P36888).
T1 construct: purchased ThermoFisher PV3182
T1 sequence (P36888 27-993): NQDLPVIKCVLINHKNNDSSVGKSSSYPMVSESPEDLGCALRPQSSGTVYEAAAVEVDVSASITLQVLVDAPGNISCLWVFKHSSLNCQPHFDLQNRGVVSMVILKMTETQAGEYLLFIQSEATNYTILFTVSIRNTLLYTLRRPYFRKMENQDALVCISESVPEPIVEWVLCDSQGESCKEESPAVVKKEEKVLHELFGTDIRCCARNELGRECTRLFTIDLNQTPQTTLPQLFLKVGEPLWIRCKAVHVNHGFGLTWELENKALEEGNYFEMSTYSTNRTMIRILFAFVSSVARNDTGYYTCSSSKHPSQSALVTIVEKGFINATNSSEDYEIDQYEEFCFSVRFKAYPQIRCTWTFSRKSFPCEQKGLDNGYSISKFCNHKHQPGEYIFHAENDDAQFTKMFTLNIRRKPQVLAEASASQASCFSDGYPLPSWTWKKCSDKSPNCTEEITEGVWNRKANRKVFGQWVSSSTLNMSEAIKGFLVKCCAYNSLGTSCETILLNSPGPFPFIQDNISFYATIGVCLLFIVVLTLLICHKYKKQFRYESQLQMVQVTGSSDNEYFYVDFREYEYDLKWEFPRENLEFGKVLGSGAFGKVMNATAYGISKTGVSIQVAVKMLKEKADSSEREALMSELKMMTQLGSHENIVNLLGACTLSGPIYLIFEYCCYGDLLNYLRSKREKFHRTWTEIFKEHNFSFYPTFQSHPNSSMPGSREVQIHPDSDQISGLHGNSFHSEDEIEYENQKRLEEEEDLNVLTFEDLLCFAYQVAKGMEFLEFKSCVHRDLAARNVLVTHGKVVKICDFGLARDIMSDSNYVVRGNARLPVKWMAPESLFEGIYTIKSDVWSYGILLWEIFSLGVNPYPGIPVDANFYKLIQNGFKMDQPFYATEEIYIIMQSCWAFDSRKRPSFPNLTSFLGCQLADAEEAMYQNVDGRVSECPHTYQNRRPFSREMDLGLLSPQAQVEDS
Kind of assay: Caliper mobility shift kinase inhibition assay, FLT3. The class given is biochemical. The note with it: recombinant kinase; enzyme 0.1 nM, ATP 95 μM, incubation 3 hr. As to the method: (§1) Compounds' inhibition of recombinant kinases (FGR, FLT3, FMS, KIT, or RON) was measured using Caliper mobility shift assay, which is based on the difference in capillary electrophoresis mobility of a fluorescent-tagged peptide as a result of a phosphorylation by the kinase under study. Reactions were started by the addition of various concentrations of a compound (originally in DMSO solution) to a kinase solution in assay buffer followed by addition of a mixture of ATP and a fluorescent-tagged peptide substrate in assay buffer. Concentrations of the enzyme, ATP and the peptide were pre-optimized so that 15% substrate conversion to ensure initial velocity measurements. After incubation for 3 hours at room temperature, the kinase reaction was quenched by the addition of a concentrated EDTA solution before analysis on a LabChip EZ Reader II to yield percentage inhibition by comparing to the DMSO control.
(§2) Table 2 below summarizes the assay conditions for the characterization of the kinase inhibition properties of the disclosed compounds.

For the next assay, the system named is MV4−11. Kind of assay: Cell viability assay (CellTiter-Glo), MV4-11. The class given is cell-based. The note with it: Homo sapiens, MV4-11 cells, 72 hr. As to the method: (§3) Cell viability assay was performed based on the following brief procedures. Cells were plated at the density of 5K/well with volume of […] in 96-well white plate and clear bottom plates. 20 μL of veh. or compound was added at proper concentration to the well. The final volume is 200 μL, with final conc. of DMSO32 0.1%, 11 points, triplicates. The cells were then treated at 37° C. in the TC incubator for 72 hr. Equal volume (200 μL) of CellTiter-Glo reagent (Promega) was added to the well and protect from light at room temperature for 15 min. The chemiluminicent was measured with EnSight (Perkin Elmer). GraphPad Prism non-linear regression, Log[inhibitor] response with four parameters were used to calculate GI50.
In general terms: Cellular ATP, detected with luciferase, serves as a proxy for viable cell number.

The test system of the next assay is Kasumi−1. Kind of assay: Cell viability assay (CellTiter-Glo), Kasumi-1. Format: cell-based. The note with it: Homo sapiens, Kasumi-1 cells, 72 hr. The protocol:
as §3

A further assay has as its system THP−1. Kind of assay: Cell viability assay (CellTiter-Glo), THP-1. Format: cell-based. The note with it: Homo sapiens, THP-1 cells, 72 hr. The protocol: as §3
The next assay addresses T2, KIT (Homo sapiens, UniProt P10721).
T2 construct: purchased BPS 40250
Kind of assay: Caliper mobility shift kinase inhibition assay, KIT. Format: biochemical. The note with it: recombinant kinase; enzyme 0.9 nM, ATP 400 μM, incubation 17 hr. The protocol: as §1, with “After incubation for 3 hours at room temperature, the kinase reaction was quenched by the addition of a concentrated EDTA solution before analysis on a LabChip EZ Reader II to yield percentage inhibition by comparing to the DMSO control.” left out
as §2

Bounds are passed on as bounds.

Broadly, the IC50 is the concentration needed to halve the response being measured. What is called GI50 is the concentration that inhibits growth by half. A higher GI50 goes with less potent growth inhibition.

T2 sequence (P10721 26-976): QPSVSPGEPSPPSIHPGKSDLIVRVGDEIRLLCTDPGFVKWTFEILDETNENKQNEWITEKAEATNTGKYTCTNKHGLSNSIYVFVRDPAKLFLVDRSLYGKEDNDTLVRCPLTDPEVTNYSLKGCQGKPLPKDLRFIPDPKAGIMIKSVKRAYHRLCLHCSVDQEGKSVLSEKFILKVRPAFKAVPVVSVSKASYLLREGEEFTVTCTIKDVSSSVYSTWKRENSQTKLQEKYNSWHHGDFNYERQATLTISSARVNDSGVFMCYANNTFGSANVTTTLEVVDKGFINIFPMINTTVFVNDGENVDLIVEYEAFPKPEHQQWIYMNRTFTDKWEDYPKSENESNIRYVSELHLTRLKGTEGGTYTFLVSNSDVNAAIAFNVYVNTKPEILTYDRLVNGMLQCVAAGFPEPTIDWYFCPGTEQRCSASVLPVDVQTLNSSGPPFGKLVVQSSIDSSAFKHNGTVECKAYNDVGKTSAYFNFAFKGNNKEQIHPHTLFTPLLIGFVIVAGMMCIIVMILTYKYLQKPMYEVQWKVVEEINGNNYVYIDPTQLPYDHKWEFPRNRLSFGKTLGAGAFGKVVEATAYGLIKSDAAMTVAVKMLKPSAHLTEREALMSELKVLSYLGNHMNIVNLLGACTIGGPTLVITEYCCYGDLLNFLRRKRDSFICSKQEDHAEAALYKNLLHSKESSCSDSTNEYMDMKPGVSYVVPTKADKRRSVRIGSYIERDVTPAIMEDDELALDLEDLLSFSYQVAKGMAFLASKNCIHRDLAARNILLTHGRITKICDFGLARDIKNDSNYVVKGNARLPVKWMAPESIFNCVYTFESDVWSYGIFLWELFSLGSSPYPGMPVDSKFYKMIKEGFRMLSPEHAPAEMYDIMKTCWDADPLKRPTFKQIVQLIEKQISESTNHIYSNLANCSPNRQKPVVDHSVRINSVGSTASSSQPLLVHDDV

Regarding `Cc1cc(Nc2cc(NCCNC(=O)[C@@H]3COCCN3C(=O)/C=C/CN(C)C)nc(Nc3ccc(CC#N)cc3)n2)n[nH]1` [Compound 2], the 50% inhibitory concentration (IC50) on FLT3 was under 0.01 µM. Also, the GI50 is 0.01 to 0.1 µM in the assay with MV4−11, 0.1 to 1 µM in the assay on Kasumi−1 and at least 1 µM with THP−1.
Consider `Cc1cc(Nc2cc(NCCNC(=O)[C@@H]3CCCN3C(=O)/C=C/CN(C)C)nc(Nc3ccc(CC#N)cc3)n2)n[nH]1` [Compound 3], for which the IC50 on FLT3 and at KIT was under 0.01 µM in each case. Besides, the GI50 with MV4−11 is 0.01 to 0.1 µM; in the assay with Kasumi−1, at least 1 µM; in the assay with THP−1, at least 1 µM.
For the compound `C=CC(=O)N(C)[C@@H](C)C(=O)NCCNc1cc(Nc2cc(C3CCC3)[nH]n2)nc(Nc2ccc(CC#N)cc2)n1` [Compound 4, (2S)—N-[2-[[2-[4-(cyanomethyl)anilino]-6-[(5-cyclobutyl-1H-pyrazol-3-yl)amino]pyrimidin-4-yl]amino]ethyl]-2-[methyl(prop-2-enoyl)amino]propanamide], the results for the IC50 at FLT3 and on KIT were under 0.01 µM and 0.01 to 0.1 µM, respectively. Besides, the GI50 was under 0.01 µM in the assay with MV4−11, 0.1 to 1 µM with Kasumi−1 and 0.1 to 1 µM in the assay with THP−1.
Regarding `CC#CC(=O)N(C)[C@@H](C)C(=O)NCCNc1cc(Nc2cc(C3CCC3)[nH]n2)nc(Nc2ccc(CC#N)cc2)n1` [Compound 5, N-[(1S)-2-[2-[[2-[4-(cyanomethyl)anilino]-6-[(5-cyclobutyl-1H-pyrazol-3-yl)amino]pyrimidin-4-yl]amino]ethylamino]-1-methyl-2-oxo-ethyl]-N-methyl-but-2-ynamide], the IC50 was under 0.01 µM at FLT3 and 0.01 to 0.1 µM on KIT. Besides, the 50% growth inhibitory concentration (GI50) in the assay with MV4−11 was under 0.01 µM; with Kasumi−1 it was at least 1 µM; in the assay with THP−1, at least 1 µM.
`C=CC(=O)N(C)[C@@H](C)C(=O)NCCNc1cc(Nc2ncc(C3CCC3)s2)nc(CC)n1` [Compound 6, (2S)—N-[2-[[6-[(5-cyclobutylthiazol-2-yl)amino]-2-ethyl-pyrimidin-4-yl]amino]ethyl]-2-[methyl(prop-2-enoyl)amino]propanamide]: the IC50 at FLT3 is under 0.01 µM. For the same compound, the GI50 in the assay on MV4−11 is under 0.01 µM; in the assay on Kasumi−1, under 0.01 µM; in the assay on THP−1 it was 0.01 to 0.1 µM.
For the compound `C=CC(=O)N(C)[C@@H](C)C(=O)NCCOc1cc(Nc2ncc(C3CCC3)s2)nc(CC)n1` [Compound 7, (2S)—N-[2-[6-[(5-cyclobutylthiazol-2-yl)amino]-2-ethyl-pyrimidin-4-yl]oxyethyl]-2-[methyl(prop-2-enoyl)amino]propanamide], the IC50 at FLT3 was under 0.01 µM. For the same compound, the GI50 in the assay with MV4−11 is under 0.01 µM; in the assay on Kasumi−1 it was under 0.01 µM; in the assay with THP−1 it was 0.1 to 1 µM.
For `CCc1nc(NCCNC(=O)[C@H](C)N(C)C(=O)/C=C/CN(C)C)cc(Nc2ncc(C3CCC3)s2)n1` [Compound 8, (E)-N-[(1S)-2-[2-[[6-[(5-cyclobutylthiazol-2-yl)amino]-2-ethyl-pyrimidin-4-yl]amino]ethylamino]-1-methyl-2-oxo-ethyl]-4-(dimethylamino)-N-methyl-but-2-enamide], at FLT3, the half-maximal inhibitory concentration (IC50) is under 0.01 µM. For the same compound, the GI50 in the assay with MV4−11 is under 0.01 µM; with Kasumi−1, 0.1 to 1 µM; in the assay with THP−1, at least 1 µM.
For `C=CC(=O)N(C)[C@@H](C)C(=O)NCCNc1cc(Nc2ncc(-c3ccccc3)s2)nc(C)n1` [Compound 9, (2S)—N-[2-[[2-methyl-6-[(5-phenylthiazol-2-yl)amino]pyrimidin-4-yl]amino]ethyl]-2-[methyl(prop-2-enoyl)amino]propanamide], the IC50 at FLT3 and on KIT was under 0.01 µM throughout. For the same compound, the GI50 is under 0.01 µM in the assay with MV4−11, under 0.01 µM in the assay with Kasumi−1 and at least 1 µM in the assay with THP−1.
In the case of `CCC(=O)N(C)[C@@H](C)C(=O)NCCNc1cc(Nc2ncc(-c3ccccc3)s2)nc(C)n1` [Compound 10, (2S)—N-[2-[[2-methyl-6-[(5-phenylthiazol-2-yl)amino]pyrimidin-4-yl]amino]ethyl]-2-[methyl(propanoyl)amino]propanamide], the IC50 on FLT3 and at KIT was 0.01 to 0.1 µM in each case. Besides, the GI50 is under 0.01 µM in the assay on MV4−11, 0.01 to 0.1 µM in the assay with Kasumi−1 and at least 1 µM in the assay on THP−1.
In the case of `Cc1nc(NCCNC(=O)[C@H](C)N(C)C(=O)/C=C/CN(C)C)cc(Nc2ncc(-c3ccccc3)s2)n1` [Compound 11], the IC50 at FLT3 was under 0.01 µM. Further, the 50% growth inhibitory concentration (GI50) in the assay with MV4−11 is under 0.01 µM; in the assay with Kasumi−1 it was under 0.01 µM; in the assay on THP−1, at least 1 µM.
Turning to `C=CC(=O)N(C)[C@@H](C)C(=O)NC[C@H]1CCc2c([nH]c(/C=C3\C(=O)Nc4ccc(F)cc43)c2C)C1` [Compound 27, (2S)—N-[[(6S)-2-[(5-fluoro-2-oxo-indolin-3-ylidene)methyl]-3-methyl-4,5,6,7-tetrahydro-1H-indol-6-yl]methyl]-2-[methyl(prop-2-enoyl)amino]propanamide], on FLT3, the IC50 is under 0.01 µM. The GI50 was under 0.01 µM with MV4−11 and at least 1 µM in the assay with THP−1.
For the compound `C=CC(=O)N(C)[C@@H](C)C(=O)NC[C@@H]1CCc2c([nH]c(/C=C3\C(=O)Nc4ccc(F)cc43)c2C)C1` [Compound 28, (2S)—N-[[(6R)-2-[(5-fluoro-2-oxo-indolin-3-ylidene)methyl]-3-methyl-4,5,6,7-tetrahydro-1H-indol-6-yl]methyl]-2-[methyl(prop-2-enoyl)amino]propanamide], on FLT3, the IC50 was under 0.01 µM. Further, the concentration for 50% growth inhibition (GI50) in the assay on MV4−11 is under 0.01 µM; in the assay on THP−1, at least 1 µM.
For the compound `Cc1c(/C=C2\C(=O)Nc3ccc(F)cc32)[nH]c2c1CC[C@H](CNC(=O)[C@H](C)N(C)C(=O)/C=C/CN(C)C)C2` [Compound 29, (E)-4-(dimethylamino)-N-[(1S)-2-[[(6S)-2-[(Z)-(5-fluoro-2-oxo-indolin-3-ylidene)methyl]-3-methyl-4,5,6,7-tetrahydro-1H-indol-6-yl]methylamino]-1-methyl-2-oxo-ethyl]-N-methyl-but-2-enamide], the IC50 on FLT3 is under 0.01 µM. Further, the GI50 with MV4−11 is under 0.01 µM; in the assay with THP−1, at least 1 µM.
Turning to `Cc1c(/C=C2\C(=O)Nc3ccc(F)cc32)[nH]c2c1CC[C@@H](CNC(=O)[C@H](C)N(C)C(=O)/C=C/CN(C)C)C2` [Compound 30, (E)-4-(dimethylamino)-N-[(1S)-2-[[(6R)-2-[(Z)-(5-fluoro-2-oxo-indolin-3-ylidene)methyl]-3-methyl-4,5,6,7-tetrahydro-1H-indol-6-yl]methylamino]-1-methyl-2-oxo-ethyl]-N-methyl-but-2-enamide], the IC50 at FLT3 was under 0.01 µM. For the same compound, the GI50 is under 0.01 µM in the assay with MV4−11 and at least 1 µM in the assay on THP−1.
